For nine compounds, IC50 results are on record in patent publication US20080261980A1, “Use of Thiazolidinone Derivatives as Antiangiogenic Agents” (Cell Therapeutics, Inc., priority 2004, published 2008).

The subject of test [1] is VEGF promoter (rat VEGF gene promoter-luciferase reporter in Hep3B cells). The test is described as follows: Luciferase assay in Hep3B-VEGF Luciferase cells, hypoxia induced by deferoxamine. The format is cell-based, human. The conditions noted are these: deferoxamine about 100 μM, 18-20 hours, 50% inhibition of the luciferase signal. How it is done: (§1) The compounds having inhibitory activity in the Hif-1a/p300 assay described above were evaluated using a cellular test on genetically modified human hepatocarcinoma Hep3B cells (Hep3B-VEGFLuciferase) in order to stably express a vector in which the Open Reading Frame of firefly Luciferase is under the control of the rat VEGF gene promoter.
Hif-1 induction by deferoxamine (which causes hypoxia) induces luciferase transcription through activation of the VEGF promoter, which in turn increases luciferase activity, which can be measured with a commercially available kit. The compounds interfering with the Hif-1a/p300 complex inhibit Hif-dependent luciferase activation, resulting in a reduction of luciferase activity. Therefore, this assay allows to evaluate the activity of the compounds towards the VEGF promoter, which is essential to VEGF production and subsequent tumor angiogenesis.
(§2) The Hep-3B-VEGF Luciferase cell line was obtained according to the following procedure.
(§3) Human hepatocarcinoma cells Hep-3B (ATCC reference No. HB-8064) were seeded onto 6-well plates at a concentration of 2.5×10^5 cells/well in 2 ml DMEM/10% FCS and the following day were transfected using Fugene 6 (Roche Biochemicals®). In each well, the transfection mixtures contained 6 μl of the transfection reagent Fugene 6, 1 μg of the pxp2-VEGF-luciferase reporter plasmid (VEGF rat promoter, NCBI GenBank No. of accession U22373, Levy et al., J. Biol. Chem. 270 (22), 13333-13340, 1995), and 10 ng of pcDNA3.1(+)plasmid (INVITROGEN) which makes the cells resistant to neomycin. Transfection was carried out according to the manufacturer's instructions.
(§4) A suitable cell population (phenotypically resistant to neomycin) was selected by means of a cloning approach based on the “dilution limit” procedure (Sambrook J., Fritsch E. F. and Maniatis T. (1989) Molecular Cloning, A Laboratory Manual; Cold Spring Harbor Laboratories). The subsequent assays for Luciferase expression/activity (Luciferase assay) and for the quantification of secreted VEGF in the supernatant (ELISA secreted VEGF test) were carried out with the stably transfected selected cells.
(§5) The following experimental protocol was used:
(§6) Day 1. Hep-3B-VEGF Luciferase cells were seeded onto “blank” 96-wells plates (Greiner) at a density of 1×10^4 cells/well/125 μl of medium, then left to adhere overnight in thermostat (37° C./5% CO2).
(§7) Day 2. 75 μl of “3.2× working solutions” of compound (previously prepared in culture medium so that the DMSO concentration is 1.6% v/v) were added to the cells (partial volume/well=200 μl, partial concentration of compound=1.2×, partial concentration of DMSO=0.6%). After 1 hour incubation in thermostat, hypoxia was induced chemically by addition of 40 μl/well of a 6× (600 μM) stock solution of deferoxamine (final volume/well=240 μl, final concentration of compound=1×, final concentration of DMSO=0.5%, final concentration of deferoxamine=1×≈100 μM). The plates were then thermostated for further 18-20 hours.
(§8) Day 3. The Luciferase assay and the secreted VEGF ELISA test were carried out as follows.
Quantification of the expression of the Luciferase reporter gene was performed by means of the Bright Glo Reagent (Promega). After removing the supernatant and washing once with PBS, 40 μl/well of Bright Glo Reagent were added to blank 96-well plates with Hep3B/VEGF-Luciferase cells. The expression levels of the reporter gene were determined by reading the plates with a luminometer.
(§9) IC50 values (concentration of the compound that causes 50% inhibition of the luciferase signal or 50% reduction of secreted VEGF) for some compounds of the invention are reported in table 2.

For test [2], the target named is T1, Biot-HIF-1α786-826/GST-p300323-423 (Homo sapiens, UniProt Q09472).
T1 construct: the p300 region ranging from amino acids 323 to 423; Hif-1α fragment corresponding to C-terminal 786-826 amino acids; made in house; host or cells: E. coli BL21 (DE3), vector pGEX-4T-1
The test is described as follows: Primary biochemical assay for inhibition of the Hif-1α/p300 interaction (DELFIA fluorescence assay). The format is binding. As to conditions: biotinylated Hif-1α 786-826 / GST-p300 323-423, mean of two independent experiments. How it is done: Primary Biochemical Assay for the Inhibition of Biot-HIF-1α^786-826/GST-p300^323/423
The compounds were evaluated for their ability to inhibit the interaction between Hif-1α and p300 using a fluorescence assay (DELFIA™). The procedure described by Freedman S J at al., Nature Structural Biology 2003, 10 (7), 504-512 was suitably modified.
The human biotinylated Hif-1α fragment corresponding to C-terminal 786-826 amino acids (Biotinylated Hif-1α^786-826) was obtained from AnaSpec Inc (San Jose, Calif., USA) and used without further purifications.
A construct expressing the GST-p300^323-423 fragment was transformed in the BL21 strain (DE3) of E. coli. Said construct was obtained by cloning in the expression vector pGEX-4T-1 (Amersham No. 27-45-80-01) the DNA sequence which encodes for the p300 region ranging from amino acids 323 to 423; the DNA sequence was obtained by PCR (Polymerase Chain Reaction). Protein expression was induced with 1 mM isopropyl-1-thio-13-D-galactopyranoside (IPTG). The bacteria were lysed by sonication in the presence of a suitable buffer (50 mM Tris.HCl pH 8.00, 100 mM NaCl, 0.1 mM ZnSO4, 1 mM DTT, 0.1 mg/ml lysozyme and a tablet of Complete EDTA-free Protease Inhibitor Cocktail Tablets (Roche, catalogue number 1 873 580)) and the GST fusion protein present in the soluble fraction was purified on a Glutathione-Sepharose 4B resin (Amersham Biosciences; no. 27-4574-01). The protein final concentration was determined according to Bradford with the Biorad assay (Bradford M., Anal. Biochem., 72, 248, (1976)) and sample purity was evaluated by SDS-PAGE. The samples were stored at −80° C. in 50% glycerol.
The assay was carried out using NUNC Maxisorp 96-well plates as follows.
C96 NUNC Maxisorp plates (from Nunc, product No. 446612) were incubated overnight with streptavidin (Sigma; product No. S 4762) at a final concentration of 1 μg/ml in PBS buffer (Phosphate Buffered Saline 10 mM sodium phosphate, 150 mM sodium chloride pH 7.4). Each well was subsequently washed with 3×300 μl of TBST buffer (50 mM Tris-HCl pH 8.0, 150 mM NaCl, 0.05% (v/v) Tween 20). Each well was then added with 100 μl of a 10 nM solution of biotinylated Hif-1α^786-826 in TBSB (50 mM Tris-HCl pH 8.0, 150 mM NaCl, 5% (w/v) BSA (Sigma, product No. A 2153)) and incubated for 1 h at 25° C. In the last row of each plate, TBSB buffer only was added. Each well was subsequently washed with 3×300 μl of TBST buffer. The thus prepared plate represented the assay plate.
Separately, a plate (daughter plate) containing in each well 10 μl of each test compound dissolved in DMSO to a concentration of 10 μM was prepared. This plate was added with 100 μl of a 111 pM solution of GST-p300^323-423 diluted in the incubation buffer (TBSB added with 0.1% (v/v) Tween 20, 0.5 mM DTT, 10 μM ZnCl2) and the whole was mixed. 100 μl of the mixture contained in the daughter plate was immediately transferred to the assay plate.
Each daughter plate was prepared with 80 different compounds at a 10 μM concentration, safe for the last two well rows, wherein each well was added with 10 μl of DMSO. These two rows represented the positive (row 11, +Hif-1) and negative (row 12, −Hif-1) controls.
After incubation for 1 h at 25° C., each well was washed with 3×300 μl of TBST buffer (50 mM Tris-HCl pH 8.0, 150 mM NaCl, 0.05% (v/v) Tween 20). Each well was then added with 60.8 ng of an europium-labelled anti-GST antibody (DELFIA Eu-N1 labeled; Perkin Elmer; product no. A D 0251) dissolved in 100 μl of TBST buffer containing 10 μM ZnCl2. After incubation for 1 h at room temperature, each well was washed with 3×300 μl of TBST buffer, then 100 μl of signal amplification solution (Enhancement Solution, Perkin Elmer product No. 1244-105) was added.
The plates were then read using a FUSION alpha-FP-HT reader (Perkin Elmer) in fluorescence mode for time resolution.
The activity of the compounds was calculated as follows. […]

Test [3] has as its system secreted VEGF (Hep3B/VEGF Luciferase cells). The test is described as follows: Secreted VEGF ELISA test in Hep3B-VEGF Luciferase cells, hypoxia induced by deferoxamine. As to conditions: Homo sapiens, deferoxamine about 100 μM, 18-20 hours, 50% reduction of secreted VEGF. It counts as cell-based. How it is done: as §1, §2, §3, §4, §5, §6, §7, §8
Quantification of secreted VEGF was performed using the “DuoSet Elisa Development System human VEGF” kit (R&D Systems). […] of the supernatant from the “blank” 96-well plates with the cells of the Hep3B/VEGF Luciferase clone were transferred into transparent 96-well plates (Maxisorp) and assayed according to the indications of the kit manufacturer.
as §9
On the technique in general: An ELISA detects its analyte on a solid surface through an enzyme-linked reagent.

T1 sequence (Q09472 323-423): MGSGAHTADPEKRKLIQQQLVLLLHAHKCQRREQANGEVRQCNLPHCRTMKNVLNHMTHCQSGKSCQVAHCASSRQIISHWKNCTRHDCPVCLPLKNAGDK

`COC(=O)c1ccccc1-c1ccc(/C=C2/SC(=S)N(Cc3ccccc3)C2=O)o1` [Compound 1, 2-[5-(3-benzyl-4-oxo-2-thioxo-thiazolidine-5-ylidenemethyl)-furan-2-yl]benzoic acid methyl ester]: the half-inhibitory concentration (IC50) (as a rule, the concentration at which inhibition is half-maximal) turned out to be 6.66 µM in test [1], 8.6 µM in test [2] and 0.37 µM in test [3].
For the compound `NS(=O)(=O)c1ccc(-c2ccc(/C=C3/SC(=S)N(Cc4ccccc4)C3=O)o2)cc1` [Compound 7, 4-[5-(3-benzyl-4-oxo-2-thioxo-thiazolidine-5-ylidenemethyl)-furan-2-yl]benzenesulfonamide], the IC50 in test [1] came to 3.16 µM; in test [2], 4.9 µM; in test [3], 0.87 µM.
The like results for `COC(=O)c1ccc(-c2ccc(/C=C3/SC(=S)N(Cc4ccc(C)cc4)C3=O)o2)cc1` [Compound 9, 4-{5-[3-(4-methylbenzyl)-4-oxo-2-thioxo-thiazolidine-5-ylidenemethyl]-furan-2-yl}benzoic acid methyl ester] were, in that order, greater than 5 µM, 5.9 µM and 0.18 µM.
Turning to `COC(=O)c1ccc(-c2ccc(/C=C3/SC(=S)N(Cc4cccs4)C3=O)o2)cc1` [Compound 13, 4-{5-[3-(2-thienyl)methyl-4-oxo-2-thioxo-thiazolidine-5-ylidenemethyl]-furan-2-yl}benzoic acid methyl ester], the figures for the concentration for half-maximal inhibition (IC50) in test [1], in test [2] and in test [3] were 9.64 µM, 14.7 µM and 0.58 µM, respectively.
With `COC(=O)c1ccc(-c2ccc(/C=C3/SC(=S)N(CCCN4CCOCC4)C3=O)o2)cc1` [Compound 16, 4-{5-[3-(morpholine-4-yl-propyl)-4-oxo-2-thioxo-thiazolidine-5-ylidenemethyl]-furan-2-yl}benzoic acid methyl ester], the results for the IC50 in test [1], in test [2] and in test [3] were 2.07 µM, 11.1 µM and 0.7 µM, respectively.
Regarding `COc1ccc(CCN2C(=O)/C(=C\c3ccc(-c4ccc(C#N)cc4)o3)SC2=S)cc1OC` [Compound 18, 4-{5-[3-[2-(3,4-dimethoxyphenyl)ethyl]-4-oxo-2-thioxo-thiazolidine-5-ylidenemethyl]-furan-2-yl}benzonitrile], the half-maximal inhibitory concentration (IC50) came to 3.17 µM in test [1], 29.9 µM in test [2] and 0.49 µM in test [3].
The like results for `N#Cc1ccc(-c2ccc(/C=C3/SC(=S)N(CCc4ccccc4)C3=O)o2)cc1` [Compound 19, 4-{5-[3-(2-phenyl)ethyl-4-oxo-2-thioxo-thiazolidine-5-ylidenemethyl]-furan-2-yl}benzonitrile] were, in that order, 7.29 µM, 1.4 µM and 0.33 µM.
As for `COC(=O)c1ccc(-c2ccc(/C=C3/SC(=S)N(CCc4ccccc4)C3=O)o2)cc1` [Compound 20, 4-{5-[3-[2-(phenyl)ethyl]-4-oxo-2-thioxo-thiazolidine-5-ylidenemethyl]-furan-2-yl}benzoic acid methyl ester], the IC50 amounted to 10.5 µM in test [1], 4.2 µM in test [2] and 0.46 µM in test [3].
In the case of `COC(=O)c1ccc(-c2ccc(/C=C3/SC(=S)N(CCc4ccc(OC)c(OC)c4)C3=O)o2)cc1` [Compound 21, 4-{5-[3-[2-(3,4-dimethoxyphenyl)ethyl]-4-oxo-2-thioxo-thiazolidine-5-ylidenemethyl]-furan-2-yl}benzoic acid methyl ester], the figures for the 50% inhibitory concentration (IC50) in test [1], in test [2] and in test [3] were 4.86 µM, 7.4 µM and 0.24 µM, respectively.
